Results from PMC10854447 (Journal of Enzyme Inhibition and Medicinal Chemistry, 2024).

How the values were obtained:
[1] = system: Caspase-3; experiment: Caspase-3 activation assay; type: cell-based, human; settings: A-594 cancer cell line; for Caspase-3 Fold change: vs untreated control cells
[2] = system: Bcl-2; experiment: Bcl-2 level assay; type: cell-based, human; settings: A-594 cancer cell line; for Bcl-2 Fold reduction: vs untreated control
[3] = system: Bax; experiment: Bax level assay; type: cell-based, human; settings: A-594 cancer cell line; for Bax Fold change: vs untreated control
[4] = system: breast cancer (MCF-7) cell line; experiment: cells; settings: Homo sapiens, MCF7, read-out: Antiproliferative activity IC50 ± SEM, MCF-7
[5] = Cell viability assay; type: cell-based; settings: human, MCF-10A normal mammary gland epithelial cells
[6] = system: lung cancer (A-549) cell line; experiment: cells; settings: Homo sapiens, A549, read-out: Antiproliferative activity IC50 ± SEM, A-549
[7] = system: colon cancer (HT-29) cell line; experiment: cells; settings: Homo sapiens, HT-29, read-out: Antiproliferative activity IC50 ± SEM, HT-29
[8] = system: pancreatic cancer (Panc-1) cell line; experiment: cells; settings: Homo sapiens, PANC-1, read-out: Antiproliferative activity IC50 ± SEM, Panc-1
[9] = system: panel of four cancer cell lines; settings: read-out: GI50 against four cancer cell lines; cited from earlier work
[10] = system: four cancer cell lines (A-549, MCF-7, Panc-1, HT-29); experiment: Antiproliferative assay, average over the four cancer cell lines; settings: for fold less potent than the reference Erlotinib (GI50): GI50 ratio vs Erlotinib
[11] = molecular target: VEGFR-2 (Homo sapiens, UniProt P35968); experiment: VEGFR-2 inhibitory assay; type: biochemical; settings: VEGFR-2 inhibition IC50 ± SEM
[12] = molecular target: EGFR (Homo sapiens, UniProt P00533); experiment: EGFR inhibitory assay; type: biochemical
[13] = system: Caspase-8; experiment: Caspase-8 level assay; type: cell-based, human; settings: A-594 cancer cell line; for Caspase-8 Fold change: vs untreated control

Sequence of VEGFR-2 (P35968 20-1356): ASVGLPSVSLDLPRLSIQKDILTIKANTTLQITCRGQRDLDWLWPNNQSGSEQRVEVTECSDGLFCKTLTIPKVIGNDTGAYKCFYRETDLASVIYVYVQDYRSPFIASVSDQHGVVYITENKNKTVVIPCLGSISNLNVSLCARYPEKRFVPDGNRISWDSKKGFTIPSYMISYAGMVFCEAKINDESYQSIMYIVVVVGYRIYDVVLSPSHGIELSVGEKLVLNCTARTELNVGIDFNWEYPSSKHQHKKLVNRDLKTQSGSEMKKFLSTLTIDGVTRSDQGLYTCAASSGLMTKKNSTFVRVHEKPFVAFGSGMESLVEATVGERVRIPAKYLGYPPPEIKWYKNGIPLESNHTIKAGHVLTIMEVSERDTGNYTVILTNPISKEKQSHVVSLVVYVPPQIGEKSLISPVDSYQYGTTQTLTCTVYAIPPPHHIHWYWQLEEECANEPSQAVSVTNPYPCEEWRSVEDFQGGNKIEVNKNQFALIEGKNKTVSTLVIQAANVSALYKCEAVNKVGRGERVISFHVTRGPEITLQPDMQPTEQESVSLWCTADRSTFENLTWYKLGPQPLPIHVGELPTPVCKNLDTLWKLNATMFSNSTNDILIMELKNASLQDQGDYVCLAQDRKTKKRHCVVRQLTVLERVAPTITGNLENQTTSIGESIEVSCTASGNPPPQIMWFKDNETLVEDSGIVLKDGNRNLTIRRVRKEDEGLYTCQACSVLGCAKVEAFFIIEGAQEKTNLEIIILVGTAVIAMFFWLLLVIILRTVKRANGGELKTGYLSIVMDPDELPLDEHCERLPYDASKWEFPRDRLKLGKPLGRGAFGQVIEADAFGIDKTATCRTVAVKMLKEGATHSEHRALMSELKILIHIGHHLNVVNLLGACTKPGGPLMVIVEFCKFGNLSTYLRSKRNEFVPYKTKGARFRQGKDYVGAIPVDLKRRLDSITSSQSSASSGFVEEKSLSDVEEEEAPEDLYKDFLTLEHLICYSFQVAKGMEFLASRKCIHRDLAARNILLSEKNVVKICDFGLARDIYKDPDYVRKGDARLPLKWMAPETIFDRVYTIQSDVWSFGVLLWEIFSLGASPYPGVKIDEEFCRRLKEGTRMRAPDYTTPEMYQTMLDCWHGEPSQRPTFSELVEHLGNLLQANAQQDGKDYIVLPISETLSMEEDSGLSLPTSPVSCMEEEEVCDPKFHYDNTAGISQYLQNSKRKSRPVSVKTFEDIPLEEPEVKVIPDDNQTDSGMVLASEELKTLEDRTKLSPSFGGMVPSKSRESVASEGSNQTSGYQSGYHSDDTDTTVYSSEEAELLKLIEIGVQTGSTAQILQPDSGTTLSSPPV
Sequence of EGFR (P00533 669-1210): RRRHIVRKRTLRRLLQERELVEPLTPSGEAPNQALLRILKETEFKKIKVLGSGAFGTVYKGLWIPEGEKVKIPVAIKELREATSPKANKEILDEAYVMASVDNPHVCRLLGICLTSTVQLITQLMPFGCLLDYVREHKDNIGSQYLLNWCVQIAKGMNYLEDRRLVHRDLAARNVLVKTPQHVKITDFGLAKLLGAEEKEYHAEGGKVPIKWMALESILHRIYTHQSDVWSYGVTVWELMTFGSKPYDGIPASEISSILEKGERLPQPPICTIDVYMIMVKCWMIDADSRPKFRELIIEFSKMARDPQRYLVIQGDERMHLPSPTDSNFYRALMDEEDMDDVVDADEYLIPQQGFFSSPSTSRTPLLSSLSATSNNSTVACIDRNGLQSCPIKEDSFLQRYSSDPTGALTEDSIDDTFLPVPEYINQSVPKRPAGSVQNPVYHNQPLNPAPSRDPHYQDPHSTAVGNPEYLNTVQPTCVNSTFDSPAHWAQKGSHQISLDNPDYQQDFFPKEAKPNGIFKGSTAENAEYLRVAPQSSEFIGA

| SMILES | Caspase-3 Conc [1] [pg/mL] | Bcl-2 Conc [2] [ng/mL] | Bax Conc [3] [pg/mL] | IC50 [4] [nM] | viability at 4 days, 50 µM [5] [%] | IC50 [6] [nM] | IC50 [7] [nM] | IC50 [8] [nM] | GI50 [9] [nM] | fold less potent than the reference Erlotinib (GI50) [10] [fold] | fold less potent than the 1-naphthyl derivative 7m (GI50) ([10]; GI50 ratio vs 7m) [fold] | IC50 [11] [nM] | IC50 [12] [nM] | Caspase-3 Fold change [1] | Bcl-2 Fold reduction [2] | Caspase-8 Conc [13] [ng/mL] | Caspase-8 Fold change [13] | Bax Fold change [3] | fold less active than the 3-halo-substituted derivatives 7i and 7h (GI50) ([10]; GI50 ratio vs 7i and 7h) [fold] |
| --- | --- | --- | --- | --- | --- | --- | --- | --- | --- | --- | --- | --- | --- | --- | --- | --- | --- | --- | --- |
| CN[C@@H]1C[C@H]2O[C@@](C)([C@@H]1OC)n1c3ccccc3c3c4c(c5c6ccccc6n2c5c31)C(=O)NC4 [Staurosporine, reference compound] | 465 ± 4 | 1.00 | 288 |  |  |  |  |  |  |  |  |  |  |  |  |  |  |  |  |
| FC(F)(F)c1ccc(-c2noc(Cn3cc(-c4ccccc4)nn3)n2)cc1 [Compound 7g, 3-(4-Trifluoromethylphenyl)-5-[(4-phenyl-1H-1,2,3-triazol-1-yl)methyl]-1,2,4-oxadiazole] |  |  |  | 68 ± 6 | 87 | 66 ± 6 | 66 ± 6 | 68 ± 6 |  |  |  |  |  |  |  |  |  |  |  |
| C#Cc1cccc(Nc2ncnc3cc(OCCOC)c(OCCOC)cc23)c1 [Erlotinib, reference compound] |  |  |  | 40 ± 3 |  | 30 ± 3 | 30 ± 3 | 30 ± 3 | 33 |  |  |  |  |  |  |  |  |  |  |
| c1ccc(-c2cn(Cc3nc(-c4ccccc4)no3)nn2)cc1 [Compound 7a, 3-Phenyl-5-[(4-phenyl-1H-1,2,3-triazol-1-yl)methyl]-1,2,4-oxadiazole] |  |  |  | 98 ± 9 | 90 | 94 ± 9 | 96 ± 9 | 96 ± 9 |  | 3 |  |  |  |  |  |  |  |  |  |
| c1ccc(-c2cn(Cc3nc(-c4cccc5ccccc45)no3)nn2)cc1 [Compound 7m, 3-(Naphthalen-1-yl)-5-[(4-phenyl-1H-1,2,3-triazol-1-yl)methyl]-1,2,4-oxadiazole] |  |  |  | 48 ± 4 | 87 | 42 ± 4 | 44 ± 4 | 46 ± 4 |  | 1.4 |  |  |  |  |  |  |  |  |  |
| Brc1ccc(-c2noc(Cn3cc(-c4ccccc4)nn3)n2)cc1 [Compound 7d, 3-(4-Bromophenyl)-5-[(4-phenyl-1H-1,2,3-triazol-1-yl)methyl]-1,2,4-oxadiazole] |  |  |  | 84 ± 8 | 88 | 80 ± 8 | 82 ± 8 | 80 ± 8 |  |  |  |  |  |  |  |  |  |  |  |
| Clc1ccc(-c2noc(Cn3cc(-c4ccccc4)nn3)n2)cc1 [Compound 7c, 3-(4-Chlorophenyl)-5-[(4-phenyl-1H-1,2,3-triazol-1-yl)methyl]-1,2,4-oxadiazole] |  |  |  | 94 ± 9 | 89 | 87 ± 8 | 92 ± 9 | 90 ± 9 |  |  |  |  |  |  |  |  |  |  |  |
| c1ccc(-c2cn(Cc3nc(-c4ccc5ccccc5c4)no3)nn2)cc1 [Compound 7n, 3-(Naphthalen-2-yl)-5-[(4-phenyl-1H-1,2,3-triazol-1-yl)methyl]-1,2,4-oxadiazole] |  |  |  | 74 ± 7 | 89 | 68 ± 6 | 72 ± 7 | 70 ± 7 |  | 2.4 | 1.7 |  |  |  |  |  |  |  |  |
| Brc1cccc(-c2noc(Cn3cc(-c4ccccc4)nn3)n2)c1 [Compound 7i, 3-(3-Bromophenyl)-5-[(4-phenyl-1H-1,2,3-triazol-1-yl)methyl]-1,2,4-oxadiazole] |  |  |  | 39 ± 3 | 89 | 36 ± 3 | 37 ± 3 | 37 ± 3 |  |  |  | 5.5 ± 0.05 | 97 ± 9 |  |  |  |  |  |  |
| COc1cc(-c2noc(Cn3cc(-c4ccccc4)nn3)n2)cc(OC)c1OC [Compound 7l, 3-(3,4,5-Trimethoxyphenyl)-5-[(4-phenyl-1H-1,2,3-triazol-1-yl)methyl]-1,2,4-oxadiazole] | 587 ± 5 | 0.60 | 362 | 30 ± 3 | 88 | 26 ± 2 | 28 ± 2 | 28 ± 2 |  |  |  | 4.7 |  | 9 | 8 | 2.55 | 28 | 40 |  |
| Clc1cccc(-c2noc(Cn3cc(-c4ccccc4)nn3)n2)c1 [Compound 7h, 3-(3-Chlorophenyl)-5-[(4-phenyl-1H-1,2,3-triazol-1-yl)methyl]-1,2,4-oxadiazole] |  |  |  | 44 ± 4 | 90 | 40 ± 4 | 42 ± 4 | 40 ± 4 |  |  |  | 6.9 ± 0.07 | 105 ± 10 |  |  |  |  |  |  |
| Clc1ccc(-c2noc(Cn3cc(-c4ccccc4)nn3)n2)c(Cl)c1 [Compound 7j, 3-(2,4-Dichlorophenyl)-5-[(4-phenyl-1H-1,2,3-triazol-1-yl)methyl]-1,2,4-oxadiazole] | 460 ± 4 | 0.95 | 291 | 36 ± 3 | 91 | 33 ± 3 | 36 ± 3 | 34 ± 3 |  |  |  | 4.7 ± 0.04 | 89 ± 8 | 7.0 | 5 | 2.00 | 22 | 32 |  |
| Fc1ccc(-c2noc(Cn3cc(-c4ccccc4)nn3)n2)cc1 [Compound 7b, 3-(4-Fluorophenyl)-5-[(4-phenyl-1H-1,2,3-triazol-1-yl)methyl]-1,2,4-oxadiazole] |  |  |  | 106 ± 10 | 91 | 102 ± 10 | 104 ± 10 | 104 ± 10 |  |  |  |  |  |  |  |  |  |  | 2.5 |
| COc1ccc(-c2noc(Cn3cc(-c4ccccc4)nn3)n2)cc1 [Compound 7f, 3-(4-Methoxyphenyl)-5-[(4-phenyl-1H-1,2,3-triazol-1-yl)methyl]-1,2,4-oxadiazole] |  |  |  | 51 ± 5 | 90 | 48 ± 4 | 46 ± 4 | 48 ± 4 |  |  |  |  |  |  |  |  |  |  |  |
| Cc1ccc(-c2noc(Cn3cc(-c4ccccc4)nn3)n2)cc1 [Compound 7e, 3-(4-Methylphenyl)-5-[(4-phenyl-1H-1,2,3-triazol-1-yl)methyl]-1,2,4-oxadiazole] |  |  |  | 102 ± 9 | 91 | 98 ± 9 | 102 ± 10 | 100 ± 10 |  | 3 |  |  |  |  |  |  |  |  |  |
| c1ccc(-c2cn(Cc3nc(-c4ccc5c(c4)OCO5)no3)nn2)cc1 [Compound 7o, 3-(2H-1,3-Benzodioxol-5-yl)-5-[(4-phenyl-1H-1,2,3-triazol-1-yl)methyl]-1,2,4-oxadiazole] |  |  |  | 80 ± 8 | 91 | 74 ± 7 | 76 ± 7 | 78 ± 7 |  |  |  |  |  |  |  |  |  |  |  |
| COc1ccc(-c2noc(Cn3cc(-c4ccccc4)nn3)n2)cc1OC [Compound 7k, 3-(3,4-Dimethoxyphenyl)-5-[(4-phenyl-1H-1,2,3-triazol-1-yl)methyl]-1,2,4-oxadiazole] | 530 ± 5 | 0.80 | 310 | 35 ± 3 | 89 | 30 ± 3 | 32 ± 3 | 32 ± 3 |  |  |  | 3.8 ± 0.03 | 82 ± 7 | 8 | 6 | 2.30 | 25 | 34 |  |
